Test systems include COLO 205 colon; HCT-15 colon; K-562 leukemia; OVCAR-4 ovarian; OVCAR-5 ovarian; SF-268 CNS; SK-OV-3 ovarian; SNB-19 CNS; MDA-MB-435; PC-3 prostate.
Common to all, as to test: NCI tumour cell line growth inhibition, 48 h

Several values for one entry are separate records, joined by “and”; a condition that tells them apart may be missing. Equal values may be shown once.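 Five concentrations, 48 hours, 96-well plates. GI50: concentration for 50% inhibition of growth. Definition used: TGI = concentration required for complete inhibition of growth.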 Numbered stars: 1 amine (or outer) side, 2 acyl side, 3 side chain; on linkers, the order of the positions; unused ones are H or OH. Bridge positions count the residues as written; N and C are the ends. Square brackets hold non-standard residues; d marks the D form. Peptide text beside a SMILES is read from it. I, II: the chains in the order shown. Actinocin(1to9) = Cc1c2oc3c(C)ccc(C(=O)[*:2])c3nc-2c(C(=O)[*:1])c(N)c1=O; NMeY = CN[CH](Cc1ccc(O)cc1)C(=O)O; Sar = CNCC(=O)O

On to `NC(=O)c1ccc(Cl)c([N+](=O)[O-])c1`, for which the TGI in the assay on COLO 205 colon, in the assay on HCT-15 colon, with K-562 leukemia, in the assay with OVCAR-4 ovarian, in the assay with OVCAR-5 ovarian and with SF-268 CNS was over 100 µM throughout. For the same compound, the TGI with SK-OV-3 ovarian and with SNB-19 CNS was over 100 µM in each case.
Turning to `COC(=O)CC[C@]12C[C@]13CC[C@]1(C)C4C(C)C[C@]5(CC(C)C(=O)O5)OC4CC1(C)C3CCC2C(C)(C)O` (some centres undefined), the TGI in the assay on COLO 205 colon, with HCT-15 colon, in the assay with K-562 leukemia, in the assay on OVCAR-4 ovarian, in the assay with OVCAR-5 ovarian and in the assay with SF-268 CNS was over 100 µM in each case. The TGI with SK-OV-3 ovarian and in the assay on SNB-19 CNS was over 100 µM each time.
`COc1c(N2CCN(CN3C(=O)C(=Nc4ccc(S(=O)(=O)Nc5ncccn5)cc4)c4cc(Cl)ccc43)C(C)C2)c(F)cc2c(=O)c(C(=O)O)cn(C3CC3)c12` (centres undefined): the GI50 was 18.4 µM in the assay with COLO 205 colon; 45.4 µM with HCT-15 colon; 21.5 µM with K-562 leukemia; 10.3 µM in the assay with MDA-MB-435; over 50 µM in the assay on OVCAR-5 ovarian; 15 µM in the assay with PC-3 prostate. Also, the GI50 was 12.1 µM with SF-268 CNS, 40 µM in the assay with SK-OV-3 ovarian and 15.7 µM with SNB-19 CNS. Also, the TGI in the assay on COLO 205 colon is over 50 µM; in the assay on HCT-15 colon, over 50 µM; in the assay with K-562 leukemia, over 50 µM; in the assay on MDA-MB-435 it was 21.1 µM; in the assay on OVCAR-5 ovarian, over 50 µM; in the assay with PC-3 prostate, over 50 µM. The TGI with SF-268 CNS was over 50 µM; with SK-OV-3 ovarian it was over 50 µM; with SNB-19 CNS, 49.4 µM.
Turning to `CCOC(=O)C1=C(C)NC(c2ccco2)=C(C#N)C1c1cccc([N+](=O)[O-])c1` (centres undefined), the GI50 was 0.0149 µM in the assay with COLO 205 colon; 0.0194 µM in the assay on K-562 leukemia; 4.53 µM in the assay on OVCAR-4 ovarian; 0.0331 µM in the assay on OVCAR-5 ovarian; 0.0783 µM in the assay on SF-268 CNS; 0.738 µM with SK-OV-3 ovarian. Further, in the assay on SNB-19 CNS, the GI50 is 0.0253 µM. Also, the TGI in the assay with COLO 205 colon was 0.039 µM; in the assay with OVCAR-4 ovarian, 74.8 µM; in the assay on OVCAR-5 ovarian, 99.5 µM; with PC-3 prostate it was 0.0554 µM; with SF-268 CNS, 41.4 µM; with SK-OV-3 ovarian, 70.9 µM.
Turning to `N#Cc1cc(S(=O)(=O)Nc2nc3ccccc3o2)c(SCc2ccccc2)cc1Cl`, the GI50 with COLO 205 colon was 30.6 µM; with HCT-15 colon, 24.6 µM; in the assay on K-562 leukemia, 38.8 µM; with MDA-MB-435, 27.2 µM; with OVCAR-4 ovarian, 42.1 µM; in the assay on OVCAR-5 ovarian, 27 µM. The GI50 in the assay with PC-3 prostate was 21.4 µM; in the assay with SF-268 CNS, 31.7 µM; in the assay on SNB-19 CNS, 20.9 µM. The TGI was over 100 µM with COLO 205 colon; 60.1 µM in the assay with HCT-15 colon; over 100 µM in the assay on K-562 leukemia; 60.2 µM with MDA-MB-435; over 100 µM in the assay on OVCAR-4 ovarian; 52 µM in the assay with OVCAR-5 ovarian. The results for the TGI in the assay with PC-3 prostate, with SF-268 CNS and in the assay with SNB-19 CNS were 43.4 µM, over 100 µM and 56.1 µM, respectively.
Consider `O=C1N=C(Nc2nc(-c3csc(NC4=NC(=O)/C(=C\c5ccccc5)S4)n3)cs2)S/C1=C/c1ccccc1`, for which the GI50 in the assay on COLO 205 colon is 30.3 µM; in the assay on HCT-15 colon it was 11.2 µM; in the assay on K-562 leukemia, 6.28 µM; in the assay with MDA-MB-435, 14.7 µM; in the assay on OVCAR-5 ovarian, 34 µM; in the assay with PC-3 prostate, 8.98 µM. Also, the figures for the GI50 with SF-268 CNS and with SNB-19 CNS were 16.6 µM and 49.1 µM, respectively. Besides, the TGI in the assay with COLO 205 colon was over 50 µM; with HCT-15 colon, over 50 µM; in the assay with K-562 leukemia, 48.9 µM; with MDA-MB-435 it was over 50 µM; with OVCAR-5 ovarian, over 50 µM; in the assay on PC-3 prostate, 42.7 µM. The TGI with SF-268 CNS and in the assay on SNB-19 CNS was over 50 µM in each case.
Take `COc1ccc(CC2C(=O)OC(C)C(NC(=O)c3c4nc5c(C(=O)NC6C(=O)NC(C(C)C)C(=O)N7CCCC7C(=O)N(C)CC(=O)N(C)C(Cc7ccc(OC)cc7)C(=O)OC6C)ccc(C)c5oc-4c(C)c(=O)c3N)C(=O)NC(C(C)C)C(=O)N3CCCC3C(=O)N(C)CC(=O)N2C)cc1` (centres undefined) (I: TVP[Sar][NMeY](Me) / II: TVP[Sar][NMeY](Me); ester I:1-I:C, II:1-II:C; linker I:N-II:N via Actinocin(1to9); configuration not given here): the GI50 in the assay on COLO 205 colon is 0.00498 µM; with K-562 leukemia it was < 0.01 µM and 0.0039 µM; in the assay on OVCAR-5 ovarian, < 0.01 µM and 0.0841 µM; in the assay with SF-268 CNS, < 0.01 µM and 0.00484 µM; in the assay on SK-OV-3 ovarian it was < 0.01 µM and 0.0582 µM. Also, the TGI in the assay on COLO 205 colon was 0.113 µM; in the assay with HCT-15 colon it was over 1 µM; in the assay on K-562 leukemia, under 0.01 µM; with OVCAR-4 ovarian, under 0.01 µM; in the assay on OVCAR-5 ovarian, over 0.651 µM; with SNB-19 CNS, 1.55 µM and > 0.804 µM.
On to `CC(=O)[O-].N.N.N.N.[Co+3].[O-][Cl+3]([O-])([O-])[O-].[OH3+]`, for which the GI50 with COLO 205 colon, with HCT-15 colon, in the assay on K-562 leukemia, in the assay with OVCAR-4 ovarian, in the assay on OVCAR-5 ovarian and in the assay on SF-268 CNS was over 100 µM in each case. The GI50 in the assay on SK-OV-3 ovarian and in the assay with SNB-19 CNS was over 100 µM each time. Moreover, the TGI in the assay on COLO 205 colon, with HCT-15 colon, in the assay with K-562 leukemia, in the assay with OVCAR-4 ovarian, in the assay on OVCAR-5 ovarian and in the assay with SF-268 CNS was over 100 µM throughout. Moreover, the TGI with SK-OV-3 ovarian and in the assay on SNB-19 CNS was over 100 µM in each case.
With `C[CH2][Sn]([CH2]C)([O]C(=O)c1ccc(F)cc1)[O]C(=O)c1ccc(F)cc1`, the GI50 with COLO 205 colon was 20.3 µM; in the assay on HCT-15 colon, 25.7 µM; in the assay on K-562 leukemia it was 16.7 µM; in the assay on OVCAR-4 ovarian, 52.4 µM; in the assay on OVCAR-5 ovarian, 30.5 µM; in the assay on SF-268 CNS it was 17.9 µM. Besides, the GI50 in the assay on SK-OV-3 ovarian was over 100 µM; in the assay with SNB-19 CNS it was 16.7 µM. Further, the TGI in the assay on COLO 205 colon is 39.6 µM; with HCT-15 colon, over 63 µM; in the assay on K-562 leukemia, 64.7 µM; in the assay on OVCAR-4 ovarian, over 100 µM; with OVCAR-5 ovarian, over 77.2 µM; with SF-268 CNS, 33.5 µM. For the same compound, the TGI in the assay with SK-OV-3 ovarian is over 100 µM; in the assay with SNB-19 CNS it was 30.5 µM.

Source of the values: PubChem BioAssay (NCI).
